Experimental data from US9890175B2, “Taxane compound, and preparation method and use thereof” (JIANGSU TASLY DIYI PHARMACEUTICAL CO., LTD., priority 2013, dated 2018).
Like-named read-outs stand apart in the source and are kept apart here.

What was measured:
LNCaP prostate cancer = test: MTT proliferation inhibition, LNCaP; type: cell-based; settings: Homo sapiens, read-out: Proliferation inhibition rate, LNCaP Prostate cancer
From the text: (§1) 1. Cytotoxicity Assay Using Human Tumor Cell Lines
(§2) Paclitaxel was used as the positive drug.

[1] = test system: MCF-7 breast cancer cells; test: MTT proliferation inhibition, MCF-7; type: cell-based; settings: Homo sapiens, MCF7, read-out: Proliferation inhibition rate, MCF-7 Breast cancer
From the text: as §1, §2

LN-18 = test: MTT proliferation inhibition, LN-18; type: cell-based; settings: Homo sapiens, LN-18, read-out: Proliferation inhibition rate, LN-18 Gastric canser
From the text: as §1, §2

[2] = test system: A549 non-small cell lung cancer; test: MTT proliferation inhibition, A549; type: cell-based; settings: Homo sapiens, A549, read-out: Proliferation inhibition rate, A549 Non-small cell lung cancer
From the text: as §1, §2

Du145 prostate cancer = test: MTT proliferation inhibition, Du145; type: cell-based; settings: Homo sapiens, DU-145, read-out: Proliferation inhibition rate, DU145 Prostate cancer
From the text: as §1, §2

[3] = test system: MDA-MB-436 breast cancer cells; test: MTT proliferation inhibition, MDA-MB-436; type: cell-based; settings: Homo sapiens, MDA-MB-436, read-out: Proliferation inhibition rate, MDA-MB-436 Breast cancer
From the text: as §1, §2

HCT 116 colon cancer = test: MTT proliferation inhibition, HCT 116; type: cell-based; settings: Homo sapiens, HCT-116, read-out: Proliferation inhibition rate, HCT 116 Colon cancer
From the text: as §1, §2

[4] = Caco-2 cell monolayer membrane transport assay (Papp and recovery); type: in vitro ADME; settings: human, Caco-2, Caco-2, A-B
From the text: Caco-2 Cell Monolayer Membrane Transport Assay
Human-derived colorectal adenocarcinoma cell line Caco-2 cell monolayer model was used to study the bidirectional transport of the target compounds from the apical (AP) side to the basolateral (BL) side and from BL side to AP side. HPLC was used for quantitative analysis to calculate transport parameters, apparent permeability coefficient (Papp) and the efflux ratio.

[5] = test system: breast cancer cell line MCF-7; test: IC50 on breast cancer cell line MCF-7; type: cell-based; settings: Homo sapiens, MCF7, 72 h, read-out: MCF-7 (IC50, nM)
Protocol: From the activity evaluation data of the above-mentioned preliminary screen, it can be seen that the series of taxanes derivatives synthesized in the present invention have activity. Afterward, the compounds are investigated to examine their IC50 values on breast cancer cell line MCF-7. […] Experiments for each compound were independently repeated for three times and multiple holes were used in each experiment. The exposure time of drugs was 72 hours.

[6] = test system: NCI-H460 non-small cell lung cancer; test: MTT proliferation inhibition, NCI-H460; type: cell-based; settings: Homo sapiens, NCI-H460, read-out: Proliferation inhibition rate, NCI-H460 Non-small cell lung cancer
From the text: as §1, §2

B16 melanoma = test: MTT proliferation inhibition, B16; type: cell-based; settings: B16, read-out: Proliferation inhibition rate, B16 Melanoma
From the text: as §1, §2

BGC-823 gastric cancer = test: MTT proliferation inhibition, BGC-823; type: cell-based; settings: Homo sapiens, BGC-823, read-out: Proliferation inhibition rate, BGC-823 Gastric cancer
From the text: as §1, §2

HT-29 colon cancer = test: MTT proliferation inhibition, HT-29; type: cell-based; settings: Homo sapiens, HT-29, read-out: Proliferation inhibition rate, HT29 Colon cancer
From the text: as §1, §2

K562 leukemia = test: MTT proliferation inhibition, K562; type: cell-based; settings: Homo sapiens, K562, read-out: Proliferation inhibition rate, K562 Leukemia
From the text: as §1, §2

A2780 ovarian cancer = test: MTT proliferation inhibition, A2780; type: cell-based; settings: Homo sapiens, A2780, read-out: Proliferation inhibition rate, A2780 Ovarian cancer
From the text: as §1, §2

Hela cervical cancer = test: MTT proliferation inhibition, HeLa; type: cell-based; settings: Homo sapiens, read-out: Proliferation inhibition rate, HeLa Uterin cancer
From the text: as §1, §2

HL-60 leukemia = test: MTT proliferation inhibition, HL-60; type: cell-based; settings: Homo sapiens, HL-60, read-out: Proliferation inhibition rate, HL60 Leukemia
From the text: as §1, §2

A375 melanoma = test: MTT proliferation inhibition, A375; type: cell-based; settings: Homo sapiens, A-375, read-out: Proliferation inhibition rate, A375 Melanoma
From the text: as §1, §2

[7] = Mean, read-out: Recovery rate in mass, Mean
[8] = Sample-01, read-out: Papp A-B, Sample-01
[9] = Sample-01, read-out: Recovery rate in mass, Sample-01
[10] = Sample-02, read-out: Papp A-B, Sample-02
[11] = Sample-02, read-out: Recovery rate in mass, Sample-02

| SMILES | inhibition at 1 µM (LNCaP prostate cancer) [%] | inhibition at 1 µM [1] [%] | inhibition at 1 µM (LN-18) [%] | inhibition at 1 µM [2] [%] | inhibition at 1 µM (Du145 prostate cancer) [%] | inhibition at 1 µM [3] [%] | inhibition at 1 µM (HCT 116 colon cancer) [%] | recovery [4, 7] [%] | Papp A→B [4, 8] [×10⁻⁶ cm/s] | recovery [4, 9] [%] | Papp A→B [4, 10] [×10⁻⁶ cm/s] | recovery [4, 11] [%] | IC50 [5] [nM] | inhibition at 1 µM [6] [%] | inhibition at 1 µM (B16 melanoma) [%] | inhibition at 1 µM (BGC-823 gastric cancer) [%] | inhibition at 1 µM (HT-29 colon cancer) [%] | inhibition at 1 µM (K562 leukemia) [%] | inhibition at 1 µM (A2780 ovarian cancer) [%] | inhibition at 1 µM (Hela cervical cancer) [%] | further results |
| --- | --- | --- | --- | --- | --- | --- | --- | --- | --- | --- | --- | --- | --- | --- | --- | --- | --- | --- | --- | --- | --- |
| CO[C@H]1C(=O)[C@]2(C)[C@@H](OC(=O)N(C)C)C[C@H]3OC[C@@]3(OC(C)=O)[C@H]2[C@H](OC(=O)c2ccccc2)[C@]23OC(=O)O[C@H]2[C@H](OC(=O)[C@H](O)[C@H](CC(C)C)NC(=O)OC(C)(C)C)C(C)=C1C3(C)C [PCMI-16] | 86.8 | 97.2 | 95.2 | 74.7 | 91.4 | 81.2 | 67.1 | 33.1 | 1.41 | 32.7 | 1.87 | 33.5 | 21.17 ± 0.21 | 87.2 | 83.1 | 95.3 | 89.2 | 95 | 96.1 | 102 | Papp A→B ([4]; Mean, read-out: Papp A-B, Mean): 1.64 ×10⁻⁶ cm/s; inhibition at 1 µM (HL-60 leukemia): 97.8%; inhibition at 1 µM (A375 melanoma): 96.3% |
| COC(=O)O[C@H]1C(=O)[C@]2(C)[C@@H](OC)C[C@H]3OC[C@@]3(OC(C)=O)[C@H]2[C@H](OC(=O)c2ccccc2)[C@]23OC(=O)O[C@H]2[C@H](OC(=O)[C@H](O)[C@@H](NC(=O)OC(C)(C)C)c2ccccc2)C(C)=C1C3(C)C [PCMI-12] | 86.3 | 81.8 | 93.4 | 73.6 | 86.7 | 81.4 | 66.6 | 27.8 to 39.5 | < 1.36 | 27.8 to 29.1 | < 1.43 | 38.2 to 39.5 | 3.24 ± 0.04 | 82.3 | 75.9 | 93 | 85.4 | 91.2 | 94.3 | 100 | Papp A→B ([4]; Mean, read-out: Papp A-B, Mean): < 1.43 ×10⁻⁶ cm/s; inhibition at 1 µM (HL-60 leukemia): 97.2%; inhibition at 1 µM (A375 melanoma): 92% |
| CO[C@H]1C[C@H]2OC[C@@]2(OC(C)=O)[C@H]2[C@H](OC(=O)c3ccccc3)[C@]34OC(=O)O[C@H]3[C@H](OC(=O)[C@H](O)[C@@H](NC(=O)N(C)C)c3ccccc3)C(C)=C([C@@H](OC(=O)N(C)C)C(=O)[C@]12C)C4(C)C [PCMI-11] | 86.5 | 82.4 | 92.9 | 72.3 | 87.2 | 79 | 64.3 | 79.9 | 1.24 | 79.7 | 1.02 | 80.2 | 4.25 ± 0.06 | 82.2 | 72.6 | 90.6 | 85.9 | 92.1 | 94.6 | 99.6 | Papp A→B ([4]; Mean, read-out: Papp A-B, Mean): 1.13 ×10⁻⁶ cm/s; inhibition at 1 µM (HL-60 leukemia): 97.9%; inhibition at 1 µM (A375 melanoma): 92.4% |
| CCSC(=O)O[C@H]1C[C@H]2OC[C@@]2(OC(C)=O)[C@H]2[C@H](OC(=O)c3ccccc3)[C@]34OC(=O)O[C@H]3[C@H](OC(=O)[C@H](O)[C@@H](NC(=O)OC(C)(C)C)c3ccccc3)C(C)=C([C@@H](OC)C(=O)[C@]12C)C4(C)C [PCMI-21] | 87.4 | 88.7 | 94.7 | 74.9 | 90.6 | 83.1 | 70.1 | 72 | 2.32 | 76.6 | 2.58 | 67.5 | 3.46 ± 0.16 | 85.5 | 75.8 | 93.3 | 87.7 | 95 | 96.4 | 99.5 | Papp A→B ([4]; Mean, read-out: Papp A-B, Mean): 2.45 ×10⁻⁶ cm/s; inhibition at 1 µM (HL-60 leukemia): 96.5%; inhibition at 1 µM (A375 melanoma): 96.7% |
| CO[C@H]1C(=O)[C@]2(C)[C@@H](OC(=O)N(C)C)C[C@H]3OC[C@@]3(OC(C)=O)[C@H]2[C@H](OC(=O)c2ccccc2)[C@]23OC(=O)O[C@H]2[C@H](OC(=O)[C@H](O)[C@@H](NC(=O)OC(C)(C)C)c2ccccn2)C(C)=C1C3(C)C [PCMI-15] | 86.7 | 95.5 | 95.7 | 74.6 | 90.8 | 82 | 68.3 | 79.3 | 2.14 | 83.7 | 2.78 | 74.8 | 18.2 ± 0.24 | 86 | 80.8 | 95 | 88.7 | 93.2 | 95.7 | 101 | inhibition at 1 µM (HL-60 leukemia): 97.8%; inhibition at 1 µM (A375 melanoma): 97.9% |
| CCSC(=O)O[C@H]1C(=O)[C@]2(C)[C@@H](OC)C[C@H]3OC[C@@]3(OC(C)=O)[C@H]2[C@H](OC(=O)c2ccccc2)[C@]23OC(=O)O[C@H]2[C@H](OC(=O)[C@H](O)[C@@H](NC(=O)OC(C)(C)C)c2ccccc2)C(C)=C1C3(C)C [PCMI-13] | 86.3 | 84.7 | 93.8 | 77.1 | 90.7 | 81 | 68.5 | 40.8 to 43.1 | < 1.3 | 40.8 to 42 | < 1.67 | 41.5 to 43.1 | 3.89 ± 0.12 | 86.2 | 81.2 | 94 | 87.4 | 94.2 | 95.9 | 100 | Papp A→B ([4]; Mean, read-out: Papp A-B, Mean): < 1.67 ×10⁻⁶ cm/s; inhibition at 1 µM (HL-60 leukemia): 97.5%; inhibition at 1 µM (A375 melanoma): 93.1% |
| CO[C@H]1C(=O)[C@]2(C)[C@@H](OC)C[C@H]3OC[C@@]3(OC(C)=O)[C@H]2[C@H](OC(=O)c2ccccc2)[C@]23OC(=O)O[C@H]2[C@H](OC(=O)[C@H](O)[C@H](CC(C)C)NC(=O)OC(C)(C)C)C(C)=C1C3(C)C [PCMI-05] | 81.6 | 84.9 | 93.3 | 67.8 | 83.9 | 74.5 | 58.7 | 54.7 | 2.59 | 58.1 | 2.56 | 51.3 | 4.04 ± 0.18 | 82 | 71.5 | 90.9 | 87.9 | 91.4 | 94.6 | 99.5 | inhibition at 1 µM (HL-60 leukemia): 97.2%; inhibition at 1 µM (A375 melanoma): 87.9% |
| CO[C@H]1C(=O)[C@@]2(C)[C@H]([C@H](OC(=O)c3ccccc3)[C@]34OC(=O)O[C@H]3[C@H](OC(=O)[C@H](O)[C@@H](NC(=O)OC(C)(C)C)c3ccccc3)C(C)=C1C4(C)C)[C@]1(OC(C)=O)CO[C@@H]1C[C@@H]2O [PCMI-06] | 83.6 | 86.3 | 94.6 | 75.5 | 89.1 | 77.8 | 67.1 | 112 | 1.31 | 128 | 1.13 | 96.6 | 16.24 ± 0.08 | 84.7 | 80.7 | 93.6 | 87.3 | 93.3 | 96 | 99.9 | Papp A→B ([4]; Mean, read-out: Papp A-B, Mean): 1.22 ×10⁻⁶ cm/s; inhibition at 1 µM (HL-60 leukemia): 97.7%; inhibition at 1 µM (A375 melanoma): 94.4% |
